Results published in patent publication US20260335265A1, “ANTICANCER COMPOSITION COMPRISING MALATE METAL SALT” (BIOSOLYX, priority 2022, published 2026).

What was measured:
[1] = tested on: NAD^+ in liver cancer (HepG2), breast cancer (MDA-MB-231), or lung cancer (H1975) cells; assay: NAD^+ levels in treated cancer cells (NAD^+ assay kit); assay type: cell-based; details: HepG2, MDA-MB-231, H1975 cells, CaMal 5 mM, CaMal2 2.5 mM, CaMal-DCA 1 mM, 48 hours, vs untreated controls, p<0.001 (FIG. 2)
Protocol: 1×10^6 liver cancer (HepG2), breast cancer (MDA-MB-231), or lung cancer (H 1975) cells were treated with CaMal of 5 mM, CaMal2 of 2.5 mM, or CaMal-DCA of 1 mM for 48 hours, respectively. Then, NAD^+ levels were then analyzed according to the method of Abcam's NAD^+ assay kit.

[2] = tested on: kidney cancer (Caki-1) cells; assay: Cancer cell survival rate (MTT reagent, absorbance); assay type: cell-based; details: 0.5, 1, 2.5, or 5 mM, 96 hours, p<0.001 vs lower-concentration groups (FIG. 5)
Protocol: (§1) 3×10^3 kidney cancer (Caki-1) or pancreatic cancer (Aspc-1) cells were incubated for 24 hours and then treated with CaMal2 of 0.5, 1, 2.5, or 5 mM and incubated for 96 hours again. Then, 3-(4,5-dimethylthiazol-2-yl)-2,5-diphenyltetrazolium bromide reagent of 10 μl was added to each well and reacted for 1 hour. After removing the reagent at the end of the reaction, DMSO 200 of μl was added to each well and the absorbance was measured to confirm the survival rate of the cells.

[3] = tested on: pancreatic cancer (Aspc-1) cells; assay: as above; assay type: cell-based; details: 0.5, 1, 2.5, or 5 mM, 96 hours, p<0.001 vs lower-concentration groups (FIGS. 5, 6)
Protocol: as §1
(§2) 3×10^3 liver cancer (HepG2), lung cancer (H1975), pancreatic cancer (Aspc-1), or breast cancer (MDA-MB-231) cells were cultured for 24 hours and then treated with CaMal-DCA of 0.5, 1, 2.5, or 5 mM and incubated for another 96 hours. Then, 3-(4,5-dimethylthiazol-2-yl)-2,5-diphenyltetrazolium bromide reagent of 10 μl was added to each well and reacted for 1 hour. After removing the reagent at the end of the reaction, DMSO of 200 μl was added to each well and the absorbance was measured to confirm the survival rate of the cells.

[4] = tested on: liver cancer (HepG2) cells; assay: Tumor growth inhibition in liver cancer xenograft mice; assay type: in vivo, Athymic Balb/c nude mice; details: 80 mg/kg orally five times a week; 30 days; vs untreated controls; p<0.001 (FIG. 11)
Protocol: 1×10^7 liver cancer (HepG2) cells were implanted with Athymic Balb/c nude mice and when they grew to approximately 200 mm^3, CaMal2 of 80 mg/kg was administered orally five times a week to observe tumor growth for 30 days.

[5] = tested on: Malate dehydrogenase 2 (MDH2); assay: Malate dehydrogenase 2 (MDH2) level by ELISA in treated cancer cells; assay type: cell-based
Protocol: (§3) 1×10^6 liver cancer (HepG2), breast cancer (MDA-MB-231), or lung cancer (H1975) cells were treated with calcium malate (CaMal) of 5 mM, calcium dimalate (CaMal2) of 2.5 mM, or calcium malate-dichloroacetic acid (CaMal-DCA) of 1 mM for 48 hours, respectively. After that, proteins were then extracted using RIPA buffer. Biorbyt's Malate dehydrogenase 2 (MDH2), Malic enzyme 2 (ME2) and Malic enzyme 3 (ME3) ELISA assay kits were utilized to quantitatively analyze the respective factors in the above extracted proteins.

[6] = tested on: Malic enzyme 2 (ME2); assay: Malic enzyme 2 (ME2) level by ELISA in treated cancer cells; assay type: cell-based
Protocol: as §3

[7] = tested on: Malic enzyme 3 (ME3); assay: Malic enzyme 3 (ME3) level by ELISA in treated cancer cells; assay type: cell-based
Protocol: as §3

[8] = tested on: beta cells; assay: Insulin levels in culture medium of pancreatic beta cells; assay type: cell-based; details: CaMal 5 mM or CaMal2 2.5 mM, 48 hours
Protocol: 1×10^6 beta cells were treated with CaMal of 5 mM or CaMal2 of 2.5 mM for 48 hours in the absence or presence of glucose of 5 mM, respectively, and a culture medium was harvested. The medium was placed in a spin concentrator (Corning, Inc.) and run at 7,500 g for 10 minutes to obtain insulin assay samples. The samples were quantitatively analyzed using an assay kit manufactured by Enzo company.

[9] = tested on: brain cancer (U-87MG) cells; assay: Cancer cell survival rate (MTT reagent, absorbance); assay type: cell-based; details: 0.5, 1, 2.5, or 5 mM, 96 hours, p<0.001 vs 0.5, 1, and 2.5 mM groups (FIG. 4)
Protocol: (§4) 3×10^3 colon cancer (HCT-116) or brain cancer (U-87MG) cells were incubated for 24 hours and then treated with CaMal of 0.5, 1, 2.5, or 5 mM and incubated for another 96 hours. Then, 3-(4,5-dimethylthiazol-2-yl)-2,5-diphenyltetrazolium bromide reagent of 10 μl was added to each well and reacted for 1 hour. After removing the reagent at the end of the reaction, DMSO of 200 μl was added to each well and then the absorbance was measured to confirm a survival rate of the cells.

[10] = tested on: colon cancer (HCT-116) cells; assay: as above; assay type: cell-based; details: 0.5, 1, 2.5, or 5 mM, 96 hours, p<0.001 vs 0.5, 1, and 2.5 mM groups (FIG. 4)
Protocol: as §4

[11] = tested on: pancreatic cancer (Aspc-1) cells; assay: Tumor growth inhibition in pancreatic cancer xenograft mice; assay type: in vivo, Athymic Balb/c nude mice; details: 20 mg/kg subcutaneously twice a week; 30 days; vs untreated controls; p<0.001 (FIG. 10)
Protocol: 1×10^7 pancreatic cancer (Aspc-1) cells were implanted with Athymic Balb/c nude mice and when they grew to approximately 200 mm^3, CaMal of 20 mg/kg was administered subcutaneously twice a week to monitor tumor growth for 30 days.

[12] = tested on: cancer cells; assay: Death of cancer cells (summary statement); assay type: cell-based; details: summary of FIGS. 4, 5, 10, 11 (calcium malate, calcium di-malate) and FIGS. 6, 12 (calcium malate and DCA)
Protocol: as §4, §1
as §2, with “Then, 3-(4,5-dimethylthiazol-2-yl)-2,5-diphenyltetrazolium bromide reagent of 10 μl was added to each well and reacted for 1 hour.” left out

[13] = HepG2, MDA-MB-231, H1975 cells, CaMal 5 mM, CaMal2 2.5 mM, CaMal-DCA 1 mM, 48 hours, vs untreated controls, p<0.001 (FIG. 1)
[14] = various cancer cell lines (FIG. 1), stated as activity

| Structure (SMILES) | levels of NAD^+ ([1]; listed as calcium di-malate) | survival rate of the cancer cells [2] | survival rate of the cancer cells [3] | tumor size [4] | amount of MDH2 [5, 13] | activity of MDH2 [5, 14] | amount of ME2 [6, 13] | activity of ME2 / malic enzymes [6, 14] | amount of ME3 [7, 13] | activity of ME3 / malic enzymes [7, 14] | levels of NAD^+ [1] | levels of NAD^+ ([1]; listed as calcium malate) | insulin levels ([8]; absence of glucose, p<0.001 vs Control (No-glucose) (FIG. 3)) | insulin levels ([8]; presence of glucose 5 mM, p<0.001 vs Control (Glucose) (FIG. 3)) | survival rate of the cancer cells [9] | survival rate of the cancer cells [10] | tumor size [11] | death of cancer cells [12] |
| --- | --- | --- | --- | --- | --- | --- | --- | --- | --- | --- | --- | --- | --- | --- | --- | --- | --- | --- |
| O=C(O)CC(O)C(=O)O (stereo not drawn) [CaMal2, calcium dimalate] | dramatic exhaustion of NAD^+ | decreased the survival rate of the cancer cells in a concentration-dependent manner | decreased the survival rate of the cancer cells in a concentration-dependent manner | tumor size became reduced visually and clearly |  |  |  |  |  |  |  |  |  |  |  |  |  |  |
| O=C(O)CC(O)C(=O)O (stereo not drawn) [CaMal, calcium malate] |  |  |  |  | significant increase | significant increase | significant increase | significant increase | significant increase | significant increase | significant decrease | dramatic exhaustion of NAD^+ | significant increase in insulin levels | significant increase in insulin levels | concentration-dependent manner decrease in a survival rate of the cancer cells | concentration-dependent manner decrease in a survival rate of the cancer cells | tumor size became reduced visually and clearly | death of cancer cells |
